Results: article PMC8237267 (Journal of Medicinal Chemistry, 2021)
“And” between values parts separate entries of the source, which are not always exact repeats. Equal values may be shown once. Read-outs that look alike come from different tables or passages of the source.

What was measured:
[1] = system: MRC-9; test: Cytotoxicity assay (Cell Titer-Blue, 72 h); type: cell-based; conditions: MRC9; MRC-9 (healthy fibroblasts); read-out: In cellulo IC50 MRC-9
[2] = target: T1, HDAC8 (Homo sapiens, UniProt Q9BY41); test: HDAC EMSA activity assay (Nanosyn); type: biochemical; conditions: recombinant enzyme, EMSA (Nanosyn); read-out: In vitro IC50 HDAC8
T1 construct: The full-length human HDACs were recombinantly expressed and purified from SF9 insect cells; host or cells: SF9 insect cells
T1 sequence (Q9BY41 1-377): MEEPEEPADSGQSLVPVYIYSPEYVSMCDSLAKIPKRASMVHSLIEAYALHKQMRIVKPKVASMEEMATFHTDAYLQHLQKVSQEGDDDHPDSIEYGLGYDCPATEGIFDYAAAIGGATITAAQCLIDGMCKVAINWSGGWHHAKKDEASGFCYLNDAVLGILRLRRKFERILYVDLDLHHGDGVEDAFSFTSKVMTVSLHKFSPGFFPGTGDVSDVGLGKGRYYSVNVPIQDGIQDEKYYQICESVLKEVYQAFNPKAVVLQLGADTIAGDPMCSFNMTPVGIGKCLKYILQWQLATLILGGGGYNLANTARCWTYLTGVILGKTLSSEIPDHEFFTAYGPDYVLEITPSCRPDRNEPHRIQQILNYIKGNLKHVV

[3] = system: MV4-11; test: Cytotoxicity assay (Cell Titer-Blue, 72 h); type: cell-based; conditions: Homo sapiens; MV4-11 (AML); read-out: In cellulo IC50 MV4-11
[4] = target: T2, HDAC6 (Homo sapiens, UniProt Q9UBN7); test: Reversibility of inhibition (Koff kinetics), residence time; type: biochemical; conditions: compound-HDAC6 complex; read-out: in vitro residence time (1/kobs)
T2 sequence (Q9UBN7 1-1215): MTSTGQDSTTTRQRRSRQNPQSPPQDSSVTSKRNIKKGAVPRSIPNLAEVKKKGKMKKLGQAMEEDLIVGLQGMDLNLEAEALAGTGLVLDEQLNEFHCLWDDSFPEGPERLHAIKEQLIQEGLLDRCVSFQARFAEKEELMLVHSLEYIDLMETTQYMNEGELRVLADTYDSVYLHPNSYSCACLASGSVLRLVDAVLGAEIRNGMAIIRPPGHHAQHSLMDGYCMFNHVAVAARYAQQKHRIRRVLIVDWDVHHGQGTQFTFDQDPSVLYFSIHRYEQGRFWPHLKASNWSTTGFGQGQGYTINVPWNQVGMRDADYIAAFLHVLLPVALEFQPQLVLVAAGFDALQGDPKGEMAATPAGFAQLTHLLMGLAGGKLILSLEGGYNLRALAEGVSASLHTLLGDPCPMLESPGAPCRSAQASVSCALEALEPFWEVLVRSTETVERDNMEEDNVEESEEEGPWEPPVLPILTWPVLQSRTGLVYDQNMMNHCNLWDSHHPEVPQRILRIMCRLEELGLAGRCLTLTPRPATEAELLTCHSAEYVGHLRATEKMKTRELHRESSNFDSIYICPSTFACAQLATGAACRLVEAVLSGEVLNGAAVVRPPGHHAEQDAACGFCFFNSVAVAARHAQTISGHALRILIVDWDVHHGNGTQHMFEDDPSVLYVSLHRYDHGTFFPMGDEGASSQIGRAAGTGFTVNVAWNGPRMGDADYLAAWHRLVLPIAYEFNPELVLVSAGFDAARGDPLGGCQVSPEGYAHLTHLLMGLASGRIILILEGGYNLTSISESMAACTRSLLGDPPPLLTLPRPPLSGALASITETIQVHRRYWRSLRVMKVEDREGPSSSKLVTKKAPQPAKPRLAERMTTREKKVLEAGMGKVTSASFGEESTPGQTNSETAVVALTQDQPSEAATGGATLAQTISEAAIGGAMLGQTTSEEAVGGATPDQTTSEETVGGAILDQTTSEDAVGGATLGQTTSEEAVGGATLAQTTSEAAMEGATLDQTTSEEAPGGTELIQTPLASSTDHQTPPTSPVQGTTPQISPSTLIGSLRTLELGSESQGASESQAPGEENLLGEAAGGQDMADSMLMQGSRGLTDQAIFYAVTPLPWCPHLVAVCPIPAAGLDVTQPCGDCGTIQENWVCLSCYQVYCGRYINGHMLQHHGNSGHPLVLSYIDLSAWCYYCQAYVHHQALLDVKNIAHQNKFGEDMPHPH
Description: Progress curves were obtained after dilution, and enzyme recovery was fitted with the following equation: % conv = Vs × t + (Vi – Vs)/Kobs app × (1 – exp(−Kobs app × t), in which Vi is the initial velocity, Vs is steady state velocity, and Kobs is the observed rate constant. The obtained Kobs rate constant was used to determine the reversibility of inhibition and calculate residence time as 1/2Tres = ln2 × 1/Kobs.

[5] = target: T3, HDAC11 (Homo sapiens, UniProt Q96DB2); test: HDAC EMSA activity assay (Nanosyn); type: biochemical; conditions: recombinant enzyme, read-out: In vitro IC50 HDAC11
T3 construct: The full-length human HDACs were recombinantly expressed and purified from SF9 insect cells; host or cells: SF9 insect cells
T3 sequence (Q96DB2 1-347): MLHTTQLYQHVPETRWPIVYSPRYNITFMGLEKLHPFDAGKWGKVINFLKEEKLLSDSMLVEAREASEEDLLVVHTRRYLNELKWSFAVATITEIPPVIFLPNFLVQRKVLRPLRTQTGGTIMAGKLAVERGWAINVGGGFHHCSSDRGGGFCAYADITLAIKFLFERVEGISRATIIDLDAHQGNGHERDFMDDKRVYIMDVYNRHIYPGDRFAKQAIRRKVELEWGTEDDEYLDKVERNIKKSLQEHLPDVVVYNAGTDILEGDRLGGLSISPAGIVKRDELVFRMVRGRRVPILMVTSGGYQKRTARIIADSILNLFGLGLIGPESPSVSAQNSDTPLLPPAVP

[6] = target: T2, HDAC6; test: HDAC EMSA activity assay (Nanosyn); type: biochemical; set-up: The full-length human HDACs were recombinantly expressed and purified from SF9 insect cells; host or cells: SF9 insect cells; conditions: for IC50: EMSA (Nanosyn); for HDAC6 fold-selectivity: over the next closest HDAC isoform tested, * = selectivity ≥ indicated value
[7] = target: T4, HDAC3 (Homo sapiens, UniProt O15379); test: HDAC EMSA activity assay (Nanosyn); type: biochemical; conditions: recombinant enzyme, read-out: In vitro IC50 HDAC3
T4 construct: The full-length human HDACs were recombinantly expressed and purified from SF9 insect cells; host or cells: SF9 insect cells
T4 sequence (O15379 whole entry): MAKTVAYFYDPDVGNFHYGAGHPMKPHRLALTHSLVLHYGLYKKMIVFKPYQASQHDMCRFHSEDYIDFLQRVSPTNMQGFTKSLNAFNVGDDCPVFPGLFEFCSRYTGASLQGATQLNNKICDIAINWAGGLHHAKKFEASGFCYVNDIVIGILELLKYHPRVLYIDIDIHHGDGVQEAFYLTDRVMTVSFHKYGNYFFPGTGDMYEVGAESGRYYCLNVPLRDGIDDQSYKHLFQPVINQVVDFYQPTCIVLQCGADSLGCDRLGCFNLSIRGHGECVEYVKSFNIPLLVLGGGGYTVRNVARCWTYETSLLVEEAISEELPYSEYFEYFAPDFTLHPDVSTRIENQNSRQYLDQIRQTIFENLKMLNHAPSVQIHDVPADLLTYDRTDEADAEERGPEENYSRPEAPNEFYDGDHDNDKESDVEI
T4 sequence (Q9Y618 395-489 partner limits assumed): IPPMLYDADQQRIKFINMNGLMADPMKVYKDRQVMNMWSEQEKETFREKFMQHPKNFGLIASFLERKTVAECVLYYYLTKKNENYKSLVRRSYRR

[8] = Stability in hepatocytes (species not stated); type: in vitro ADME; set-up: dose or concentration left out as unconfirmed; conditions: mouse, species not given
[9] = In vitro stability in mouse hepatocytes; type: in vitro ADME; conditions: read-out: Stability in mouse hepatocytes t1/2
Protocol: The inhibitors (and controls) were formulated to concentrations of 100 μM in 50% acetonitrile/50% water. The medium (William’s E Medium supplemented with GlutaMAX) and hepatocyte thawing medium were allowed to reach room temperature and the hepatocytes and thawing medium and centrifuged at 100 g for 10 min. The supernatant was removed, and hepatocytes resuspended in the incubation medium (∼1.5 × 10^6 cells/mL). The cells were diluted to 0.5 × 10^6 viable cells/mL. A volume of 198 μL of hepatocytes was transferred to a 96-well noncoated plate and incubated at 37 °C for 10 min. Following this, 2 μL of the 100 μM test compounds or positive control was transferred into respective wells to start the reaction. At different time points (0, 15, 30, 60, 90, and 120 min), 25 μL aliquots were mixed with 6 volumes (150 μL) of acetonitrile containing internal standard, IS (100 nM alprazolam, 200 nM labetalol, 200 nM caffeine, and 200 nM diclofenac) to terminate the reaction. Samples were vortexed for 5 min and centrifuged for 45 min at 3220g, diluted by ultrapure water, followed by LC/MS/MS analysis. The in vitro half-life (T1/2) was determined by regression analysis of the percent parent disappearance vs time curve (T1/2 = 0.693/k) using Microsoft Excel.

[10] = Stability in human hepatocytes; type: in vitro ADME; conditions: read-out: t1/2 in human hepatocytes
[11] = target: T2, HDAC6; test: Time-dependent IC50 assay with preincubation (0-6 h); type: biochemical; conditions: 6 h time-dependent assay
Protocol: The binding kinetics profile of KT-531 was also investigated by determining the association (kon)/dissociation (koff) rates as well as residence time parameters. The in vitro residence time (1/kobs) for the KT-531–HDAC6 complex was determined to be 23.18 min, as compared to 10.72 min for 1.

[12] = Glutathione stability / reactivity assay; type: in vitro ADME
Protocol: Although covalent modification of HDAC6 was not observed (Figure S2), the PFBS group is susceptible to nucleophilic aromatic substitution by biological nucleophiles. A previously described high-throughput in vitro glutathione-reactivity assay was conducted, where compounds were incubated in the presence of glutathione (GSH) and the formation of a GSH-compound adduct was monitored over time via LC/MS/MS.[50]
Compound was added to PBS and 5 mM GSH to reach a final concentration of 5 μM. […] Samples were vortexed and centrifuged for 45 min at 3220g. Aliquots were diluted by ultrapure water, and used for LC/MS/MS analysis. Peak area ratios were determined and percent compounds remaining was calculated by the following equation: [drawing 1] where peak area ratio (t min) is the peak area ratio of control and test compounds at t min; peak area ratio0min is the peak area ratio of control and test compounds at the zero time point. In vitro half-life (t1/2) = −(0.693/k).

[13] = Stability in mouse plasma; type: in vitro ADME; set-up: half-life at 2 h: dose or concentration left out as unconfirmed; conditions: read-out: Plasma stability t1/2
Protocol: The plasma stability of the compounds was evaluated in mouse plasma provided from Sigma-Aldrich, Oakville, Canada. The main stock solutions of the compounds were prepared at 10 mM in DMSO, which was diluted to 100 μM in 50% acetonitrile (ACN)/50% water. Aliquots of 356.5 μL of plasma proteins were placed in a heating block and allowed to equilibrate at 37 °C for 5 min. Then, 3.5 μL of 100 μM compound solutions were added to each vial (final concentration of 1 μM). Three quality control (QC) samples at 100, 500, and 1000 nM were prepared in 0.5% ACN. The vial contents were transferred in 50 μL aliquots at time points of 0.5, 5, 10, 20, 30, and 60 mi to a 96-well autosampler plate containing 150 μL of protein precipitation solution. Ice-cold ACN containing internals standards (100 nM glyburide) were used as the protein precipitation solution. After centrifugation at 4 °C, 5500 rpm for 15 min, the supernatant was diluted in MQ water, and injected into the LC/MS/MS for quantitative analysis.
The mobile phase consisted of (A) 0.1% (v/v) formic acid in Milli-Q water; (B) 0.1% (v/v) formic acid in acetonitrile. […] Peak areas were determined from extracted ion chromatograms. The in vitro half-life (t1/2) of parent compounds were determined by regression analysis of the percent parent disappearance vs time curve.

[14] = recombinant enzyme, read-out: In vitro IC50 HDAC6
[15] = PBS with 5 mM glutathione (GSH), 5 mM GSH, PBS, read-out: half-life in incubation with GSH

IC50 [2] [nM] | residence time [4] [min] | IC50 [5] [nM] | IC50 ([6]; read-out: IC50 HDAC6) [nM] | HDAC6 fold-selectivity [6] | IC50 [6, 14] [nM] | IC50 [7] [nM] | half-life at 2 h [8] [min] | half-life at 1 μM [9] [min] | half-life [10] [min] | reversibility of binding (IC50 over preincubation time) [11] | half-life at 5 μM [12, 15] [min] | half-life at 2 h, 5 µM [12, 15] [min] | half-life at 2 h [13] [min] | reactivity with glutathione ([12]; GSH adduct formation by LC/MS/MS, KT-531 up to 24 h) | Structure (SMILES) | IC50 [1] [nM] | IC50 [3] [nM]
700 | 10.7 | > 1000 | 5.9 | 36 fold and 36.32 fold | 6 | 200 |  |  |  |  |  |  |  |  | O=C(NO)c1ccc(CNC(=O)c2c(F)c(F)c(F)c(F)c2F)cc1 [Compound 1, 2,3,4,5,6-Pentafluoro-N-(4-(hydroxycarbamoyl)benzyl)benzamide] | > 50000 | 1850
29 |  | 47 | 0.9 |  |  | 70 | 3 | < 2.26 | 3.84 | unchanged IC50 values | ~20 | 20 |  |  | O=C(NO)c1ccc(CN(C2CC2)S(=O)(=O)c2c(F)c(F)c(F)c(F)c2F)cc1 [Compound 5, 4-(((N-Cyclopropyl-2,3,4,5,6-pentafluorophenyl)sulfonamido)methyl)-N-hydroxybenzamide] | > 20000 | 
378 |  | > 1000 |  | 37.8 fold | 10 | > 1000 |  |  |  |  |  |  | 25 | unreactive toward GSH | O=C(NO)c1ccc(CN(C2CC2)S(=O)(=O)c2c(F)c(F)cc(F)c2F)cc1 [Compound 6, 4-(((N-Cyclopropyl-2,3,5,6-tetrafluorophenyl)sulfonamido)methyl)-N-hydroxybenzamide] | > 15000 | 6140
